What was measured:
[1] = target: T1, PSMA (Homo sapiens, UniProt Q04609); assay: In vitro competition binding assay using LNCaP cells and [18F]DCFPyL as radioligand; conditions: displacement of [18F]DCFPyL from LNCaP cells, n = 3; read-out: PSMA binding affinity (Ki)
T1 construct: endogenous in cells; host or cells: LNCaP prostate cancer cells
Description: The binding assays were conducted following previously published procedures using LNCaP cells and [^18F]DCFPyL as the radioligand [17]-[19]. Briefly, LNCaP cells (400,000/well) were plated onto a 24-well poly-D-lysine coated plate for 48 h. Growth media was removed and replaced with HEPES buffered saline (50 mM HEPES, pH 7.5, 0.9% sodium chloride) and the cells were incubated for 1 h at 37 °C. [^18F]DCFPyL (0.1 nM) was added to each well (in triplicate) containing various concentrations (0.5 mM - 0.05 nM) of tested nonradioactive Ga-complexed compounds. Non-specific binding was determined in the presence of 10 µM non-radiolabeled DCFPyL. The assay mixtures were further incubated for 1 h at 37 °C with gentle agitation. Then, the buffer and radioligand were removed, and cells were washed twice with cold HEPES buffered saline. To harvest the cells, 400 µL of 0.25 % trypsin solution was added to each well. Radioactivity was measured on a PerkinElmer (Waltham, MA) Wizard2 2480 automatic gamma counter. Data analyses of Ki were performed using the nonlinear regression algorithm of GraphPad (San Diego, CA) Prism 7 software.

[2] = test system: LNCaP tumor-bearing mice; assay: Ex vivo biodistribution of 68Ga-labeled ligands in LNCaP tumor-bearing NSG mice; conditions: 1 h post-injection

T1 sequence (Q04609 whole entry): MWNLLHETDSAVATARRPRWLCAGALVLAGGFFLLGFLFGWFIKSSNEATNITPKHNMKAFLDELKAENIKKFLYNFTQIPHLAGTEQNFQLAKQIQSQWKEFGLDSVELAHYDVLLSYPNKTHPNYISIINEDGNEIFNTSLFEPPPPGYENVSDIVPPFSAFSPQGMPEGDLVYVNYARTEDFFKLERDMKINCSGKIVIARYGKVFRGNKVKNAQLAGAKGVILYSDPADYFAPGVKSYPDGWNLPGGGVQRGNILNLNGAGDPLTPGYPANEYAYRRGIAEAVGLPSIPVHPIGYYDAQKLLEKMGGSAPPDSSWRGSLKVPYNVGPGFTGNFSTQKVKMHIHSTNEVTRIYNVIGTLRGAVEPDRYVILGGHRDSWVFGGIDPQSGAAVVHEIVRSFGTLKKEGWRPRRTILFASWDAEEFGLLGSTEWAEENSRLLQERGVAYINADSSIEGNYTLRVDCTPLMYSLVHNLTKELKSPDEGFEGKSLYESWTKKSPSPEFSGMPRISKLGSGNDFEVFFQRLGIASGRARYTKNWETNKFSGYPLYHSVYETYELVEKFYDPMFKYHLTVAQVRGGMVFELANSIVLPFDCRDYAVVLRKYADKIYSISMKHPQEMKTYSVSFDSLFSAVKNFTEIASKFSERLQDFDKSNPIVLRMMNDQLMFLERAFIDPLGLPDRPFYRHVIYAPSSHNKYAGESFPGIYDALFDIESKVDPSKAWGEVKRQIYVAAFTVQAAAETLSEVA

Structure (SMILES): O=C([O-])CN1CCN(CC(=O)[O-])CCN(CC(=O)NCC2CCC(C(=O)NC(Cc3c4ccccc4cc4ccccc34)C(=O)NCCCCC(NC(=O)NC(CC(=O)O)C(=O)O)C(=O)O)CC2)CCN(CC(=O)[O-])CC1.[Ga+3] (centres unmarked) [Ga-HTK03161]
- Ki [1]: 3.88 ± 0.66 nM

Structure (SMILES): O=C([O-])CN1CCN(CC(=O)[O-])CCN(CC(=O)NCC2CCC(C(=O)NC(Cc3c4ccccc4cc4ccccc34)C(=O)NCCCCC(NC(=O)NC(CCCCC(=O)O)C(=O)O)C(=O)O)CC2)CCN(CC(=O)[O-])CC1.[68Ga+3] (single isomer, unassigned) [[^68Ga]Ga-HTK03189B]
- Tumor uptake [2]: 0.67±0.15 %IA/g
- Adrenal glands uptake ([2]; listed as [68Ga]Ga-HTK03189B): 0.37 ± 0.15 %IA/g
- Blood uptake ([2]; listed as [68Ga]Ga-HTK03189B): 1.06 ± 0.25 %IA/g
- Blood:Salivary gland uptake ratio ([2]; listed as [68Ga]Ga-HTK03189B): 4.86 ± 1.16
- Bone uptake ([2]; listed as [68Ga]Ga-HTK03189B): 0.10 ± 0.02 %IA/g
- Brain uptake ([2]; listed as [68Ga]Ga-HTK03189B): 0.03 ± 0.00 %IA/g
- Fat uptake ([2]; listed as [68Ga]Ga-HTK03189B): 0.17 ± 0.10 %IA/g
- Heart uptake ([2]; listed as [68Ga]Ga-HTK03189B): 0.30 ± 0.06 %IA/g
- Intestines uptake ([2]; listed as [68Ga]Ga-HTK03189B): 0.28 ± 0.07 %IA/g
- Kidneys uptake ([2]; listed as [68Ga]Ga-HTK03189B): 2.13 ± 0.45 %IA/g
- Lacrimal glands uptake ([2]; listed as [68Ga]Ga-HTK03189B): 0.13 ± 0.04 %IA/g
- Liver uptake ([2]; listed as [68Ga]Ga-HTK03189B): 0.39 ± 0.08 %IA/g
- Lungs uptake ([2]; listed as [68Ga]Ga-HTK03189B): 0.82 ± 0.22 %IA/g
- Muscle uptake ([2]; listed as [68Ga]Ga-HTK03189B): 0.12 ± 0.03 %IA/g
- Pancreas uptake ([2]; listed as [68Ga]Ga-HTK03189B): 0.18 ± 0.05 %IA/g
- Salivary glands uptake ([2]; listed as [68Ga]Ga-HTK03189B): 0.22 ± 0.04 %IA/g
- Spleen uptake ([2]; listed as [68Ga]Ga-HTK03189B): 0.20 ± 0.05 %IA/g
- Stomach uptake ([2]; listed as [68Ga]Ga-HTK03189B): 0.11 ± 0.03 %IA/g
- Testes uptake ([2]; listed as [68Ga]Ga-HTK03189B): 0.26 ± 0.05 %IA/g
- Thyroid uptake ([2]; listed as [68Ga]Ga-HTK03189B): 0.29 ± 0.08 %IA/g
- Tumor uptake ([2]; listed as [68Ga]Ga-HTK03189B): 0.67 ± 0.15 %IA/g
- Tumor:Blood uptake ratio ([2]; listed as [68Ga]Ga-HTK03189B): 0.65 ± 0.15
- Tumor:Kidney uptake ratio ([2]; listed as [68Ga]Ga-HTK03189B): 0.32 ± 0.05
- Tumor:Muscle uptake ratio ([2]; listed as [68Ga]Ga-HTK03189B): 5.68 ± 1.12
- Tumor:Salivary gland uptake ratio ([2]; listed as [68Ga]Ga-HTK03189B): 3.08 ± 0.53

Structure (SMILES): O=C([O-])CN1CCN(CC(=O)[O-])CCN(CC(=O)NCC2CCC(C(=O)NC(Cc3c4ccccc4cc4ccccc34)C(=O)NCCCCC(NC(=O)NC(CCCC(=O)O)C(=O)O)C(=O)O)CC2)CCN(CC(=O)[O-])CC1.[Ga+3] (centres unmarked) [Ga-HTK03149]
- Ki [1]: 6.99 ± 0.8 nM

Structure (SMILES): O=C([O-])CN1CCN(CC(=O)[O-])CCN(CC(=O)NCC2CCC(C(=O)NC(Cc3c4ccccc4cc4ccccc34)C(=O)NCCCCC(NC(=O)NC(CCCCC(=O)O)C(=O)O)C(=O)O)CC2)CCN(CC(=O)[O-])CC1.[68Ga+3] (single isomer, unassigned) [[^68Ga]Ga-HTK03189A]
- Higher tumor uptake than [68Ga]Ga-HTK03189B [2]: ~ 2 fold
- Adrenal glands uptake ([2]; listed as [68Ga]Ga-HTK03189A): 0.35 ± 0.06 %IA/g
- Blood uptake ([2]; listed as [68Ga]Ga-HTK03189A): 0.89 ± 0.22 %IA/g
- Blood:Salivary gland uptake ratio ([2]; listed as [68Ga]Ga-HTK03189A): 4.39 ± 0.44
- Bone uptake ([2]; listed as [68Ga]Ga-HTK03189A): 0.12 ± 0.03 %IA/g
- Brain uptake ([2]; listed as [68Ga]Ga-HTK03189A): 0.02 ± 0.00 %IA/g
- Fat uptake ([2]; listed as [68Ga]Ga-HTK03189A): 0.18 ± 0.11 %IA/g
- Heart uptake ([2]; listed as [68Ga]Ga-HTK03189A): 0.24 ± 0.06 %IA/g
- Intestines uptake ([2]; listed as [68Ga]Ga-HTK03189A): 0.31 ± 0.18 %IA/g
- Kidneys uptake ([2]; listed as [68Ga]Ga-HTK03189A): 2.65 ± 0.69 %IA/g
- Lacrimal glands uptake ([2]; listed as [68Ga]Ga-HTK03189A): 0.18 ± 0.18 %IA/g
- Liver uptake ([2]; listed as [68Ga]Ga-HTK03189A): 0.34 ± 0.15 %IA/g
- Lungs uptake ([2]; listed as [68Ga]Ga-HTK03189A): 0.68 ± 0.12 %IA/g
- Muscle uptake ([2]; listed as [68Ga]Ga-HTK03189A): 0.14 ± 0.04 %IA/g
- Pancreas uptake ([2]; listed as [68Ga]Ga-HTK03189A): 0.15 ± 0.04 %IA/g
- Salivary glands uptake ([2]; listed as [68Ga]Ga-HTK03189A): 0.20 ± 0.04 %IA/g
- Spleen uptake ([2]; listed as [68Ga]Ga-HTK03189A): 0.21 ± 0.10 %IA/g
- Stomach uptake ([2]; listed as [68Ga]Ga-HTK03189A): 0.11 ± 0.06 %IA/g
- Testes uptake ([2]; listed as [68Ga]Ga-HTK03189A): 0.23 ± 0.11 %IA/g
- Thyroid uptake ([2]; listed as [68Ga]Ga-HTK03189A): 0.25 ± 0.05 %IA/g
- Tumor uptake ([2]; listed as [68Ga]Ga-HTK03189A): 2.10 ± 0.28 %IA/g
- Tumor:Blood uptake ratio ([2]; listed as [68Ga]Ga-HTK03189A): 2.41 ± 0.29
- Tumor:Kidney uptake ratio ([2]; listed as [68Ga]Ga-HTK03189A): 0.83 ± 0.21
- Tumor:Muscle uptake ratio ([2]; listed as [68Ga]Ga-HTK03189A): 16.5 ± 4.08
- Tumor:Salivary gland uptake ratio ([2]; listed as [68Ga]Ga-HTK03189A): 10.5 ± 1.07
- Tumor uptake ([2]; listed as [^68Ga]Ga-HTK0189A): 2.10±0.28 %IA/g

Reference: article PMC9475448, “What a difference a methylene makes: replacing Glu with Asp or Aad in the Lys-urea-Glu pharmacophore of PSMA-targeting radioligands to reduce kidney and salivary gland uptake” (Theranostics, 2022)
